Assays:
rat sEH = target: T1, rat sEH (Rattus norvegicus, UniProt P80299); experiment: rat sEH inhibition; format: biochemical
T1 sequence (P80299 1-554): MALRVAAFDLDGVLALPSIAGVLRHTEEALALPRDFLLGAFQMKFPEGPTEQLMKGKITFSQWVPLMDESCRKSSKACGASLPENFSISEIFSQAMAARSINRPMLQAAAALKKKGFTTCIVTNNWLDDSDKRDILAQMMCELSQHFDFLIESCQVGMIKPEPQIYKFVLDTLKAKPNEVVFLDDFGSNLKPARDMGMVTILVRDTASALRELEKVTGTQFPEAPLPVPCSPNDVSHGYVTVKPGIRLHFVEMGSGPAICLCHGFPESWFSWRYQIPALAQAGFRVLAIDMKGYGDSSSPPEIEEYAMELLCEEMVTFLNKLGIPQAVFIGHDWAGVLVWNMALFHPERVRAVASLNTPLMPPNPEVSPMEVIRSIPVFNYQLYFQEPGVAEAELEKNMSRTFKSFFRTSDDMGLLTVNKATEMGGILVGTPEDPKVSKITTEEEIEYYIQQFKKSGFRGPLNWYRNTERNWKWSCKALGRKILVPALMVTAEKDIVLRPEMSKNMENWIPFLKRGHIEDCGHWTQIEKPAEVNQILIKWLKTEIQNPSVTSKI

sEH [1] = experiment: inhibition of sEH; format: biochemical; settings: relative to parent compound
Description: (§1) Any of a number of standard assays for determining epoxide hydrolase activity can be used to determine inhibition of sEHI. […] Suitable in vitro assays are described in Zeldin et al. J. Biol. Chem. 268:6402-6407 (1993). Suitable in vivo assays are described in Zeldin et al., Arch Biochem Biophys 330:87-96 (1996).
(§2) The enzyme also can be detected based on the binding of specific ligands to the catalytic site which either immobilize the enzyme or label it with a probe such as dansyl, fluoracein, luciferase, green fluorescent protein or other reagent. The enzyme can be assayed by its hydration of EETs, its hydrolysis of an epoxide to give a colored product as described by Dietze et al., 1994, supra, or its hydrolysis of a radioactive surrogate substrate (Borhan et al., 1995, supra). The enzyme also can be detected based on the generation of fluorescent products following the hydrolysis of the epoxide. Numerous methods of epoxide hydrolase detection have been described (see, e.g., Wixtrom, supra).
(§3) The assays are normally carried out with a recombinant enzyme following affinity purification. They can be carried out in crude tissue homogenates, cell culture or even in vivo, as known in the art and described in the references cited above.

[2] = system: streptozocin induced neuropathic pain; experiment: von Frey test (mechanical allodynia) in streptozocin neuropathic rats; format: in vivo, rat; settings: neuropathic pain model
Procedure: Male Sprague-Dawley rats weighing 250-300 grains were used. Animals were individually housed at UC Davis Animal Resource Facility under standard conditions with free access to food and water, and maintained for at least 1 week before the experiments. Pain was quantified using three tests, the hind paw withdrawal latency test, the mechanical hyperalgesia test and the mechanical allodynia test. All the experiments were performed during the daytime.
Rats were first trained to the experimental chamber in two separate sessions. On the day of the induction of neuropathy, the animals' basal response to all three tests were measured and then streptozocin (50 mg/kg) was administered intravenously. Animals were then followed over time for the development of neuropathic pain. An inhibitor of sEH was administered subcutaneously one week after the onset of pain symptoms. […] Compounds were formulated by dissolving them in ethanol and mixing with trans free oleic oil. At least six animals per group were used. The Von Frey test was conducted by stimulating the plantar surface of the rats' hind paw with a calibrated filament connected to a force transducer. As this filament is applied the amount of force exerted on the paw increases and the animal withdraws its paw when the force reaches its threshold. […] In the Randal-Selitto test a similar principle is used. The animals' hind paw is placed between a flat surface and a pointed tip of a force transducer. The pointed tip exerts force on the dorsal face of the paw. […] The two tests are complementary, but depend on the activity of different groups of nociceptors.
Treatments and behavioral nociceptive tests. […] Following baseline measurements, rats were first treated with 200 μl of vehicle or compound-formulated cream by topical application to one hindpaw, LPS ([…] in 50 μl 0.9% NaCl) was injected into the plantar surface of the treated paw. For subcutaneous administration, compounds were injected immediately after intraplantar LPS. […] A probe fitted with a filament that is connected to a force transducer was applied to the plantar hind paw surface through a wire-mesh platform until eliciting a withdrawal reflex. The duration of heat application or the force (gr) necessary to elicit a withdrawal was designated as TWL and MWT. The steroidogenesis inhibitors were applied 2 hours before sEHI and LPS administration. Diabetes was induced by intravenous injection of 50 mg/kg streptozocin (STZ) in saline following baseline measurements. Diabetic animals were tested at least one week after STZ administration. Three measurements were taken from each animal at each time point and average responses were converted to percent analgesia index based on each animals' baseline response.

[3] = system: streptozocin induced neuropathic pain; experiment: mechanical hyperalgesia test (Randal-Selitto) in streptozocin neuropathic rats; format: in vivo, rat
Procedure: Male Sprague-Dawley rats weighing 250-300 grains were used. Animals were individually housed at UC Davis Animal Resource Facility under standard conditions with free access to food and water, and maintained for at least 1 week before the experiments. Pain was quantified using three tests, the hind paw withdrawal latency test, the mechanical hyperalgesia test and the mechanical allodynia test. All the experiments were performed during the daytime. Rats were first trained to the experimental chamber in two separate sessions. On the day of the induction of neuropathy, the animals' basal response to all three tests were measured and then streptozocin (50 mg/kg) was administered intravenously. Animals were then followed over time for the development of neuropathic pain. An inhibitor of sEH was administered subcutaneously one week after the onset of pain symptoms. […] Pain response was measured at 60, 120, 240 and 480 minutes after the administration of the sEHI. Compounds were formulated by dissolving them in ethanol and mixing with trans free oleic oil. At least six animals per group were used. The Von Frey test was conducted by stimulating the plantar surface of the rats' hind paw with a calibrated filament connected to a force transducer. As this filament is applied the amount of force exerted on the paw increases and the animal withdraws its paw when the force reaches its threshold. […] In the Randal-Selitto test a similar principle is used. The animals' hind paw is placed between a flat surface and a pointed tip of a force transducer. The pointed tip exerts force on the dorsal face of the paw. […] The two tests are complementary, but depend on the activity of different groups of nociceptors.

sEH [4] = target: T2, sEH (Homo sapiens, UniProt P34913); experiment: inhibition of sEH; format: biochemical
T2 sequence (P34913 1-555): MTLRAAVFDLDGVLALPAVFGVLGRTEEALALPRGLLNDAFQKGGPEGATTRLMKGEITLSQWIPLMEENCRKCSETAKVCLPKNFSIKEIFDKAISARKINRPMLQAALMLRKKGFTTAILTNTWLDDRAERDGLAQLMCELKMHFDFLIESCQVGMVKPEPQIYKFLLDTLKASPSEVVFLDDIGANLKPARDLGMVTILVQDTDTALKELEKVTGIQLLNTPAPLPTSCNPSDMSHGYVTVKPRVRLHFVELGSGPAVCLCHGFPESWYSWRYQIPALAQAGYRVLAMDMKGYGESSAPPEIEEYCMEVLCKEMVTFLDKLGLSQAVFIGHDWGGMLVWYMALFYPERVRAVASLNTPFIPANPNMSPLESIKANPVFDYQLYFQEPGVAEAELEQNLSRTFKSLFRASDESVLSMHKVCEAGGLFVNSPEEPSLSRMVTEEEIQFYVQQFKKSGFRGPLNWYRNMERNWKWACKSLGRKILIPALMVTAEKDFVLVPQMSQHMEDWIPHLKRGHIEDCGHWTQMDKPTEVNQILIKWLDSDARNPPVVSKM
Description: as §1, §2, §3

metabolism and stability = settings: in vivo

CCOCCOCCOCCCCCNC(=O)NC12CC3CC(CC(O)(C3)C1)C2 [compound 1010, reference compound]
IC50 (rat sEH): 1160 nM
fold less active in inhibiting sEH than parent compound (sEH [1]): 250 fold
pain scores of diabetic rats [2]: not
pain, mechanical hyperalgesia test (FIG. 3) ([3]; 25 mg/kg): showed no effectiveness
mechanical allodynia induced by diabetic neuropathy (FIG. 3 legend) ([3]; compound 1010 at equivalent dose): shows no effectiveness in reducing nociception

CCCCCCCCCCCCNC(=O)NC12CC3CC(CC(C3)C1)C2 [ADU, N-Adamantyl-N-dodecyl urea]
activity as inhibitor of sEH (sEH [4]): particularly high activity on sEH
metabolic stability (metabolism and stability): metabolically stable

Source: patent US8399425B2, “Alleviating neuropathic pain with EETs and sEH inhibitors” (The Regents of the University of California, priority 2007, dated 2013)
